Experimental data from PMC2810227, “3-O-Methylfunicone, a Selective Inhibitor of Mammalian Y-Family DNA Polymerases from an Australian Sea Salt Fungal Strain” (Marine Drugs, 2009).

What was measured:
[1] = target: T1, fruit fly pol α (Drosophila melanogaster, UniProt P26019); assay: DNA polymerase assay, insect pol α; assay type: biochemical; settings: 100 μM
T1 construct: purified from early embryos of Drosophila melanogaster; from tissue; host or cells: early embryos of Drosophila melanogaster
T1 sequence (P26019 whole entry): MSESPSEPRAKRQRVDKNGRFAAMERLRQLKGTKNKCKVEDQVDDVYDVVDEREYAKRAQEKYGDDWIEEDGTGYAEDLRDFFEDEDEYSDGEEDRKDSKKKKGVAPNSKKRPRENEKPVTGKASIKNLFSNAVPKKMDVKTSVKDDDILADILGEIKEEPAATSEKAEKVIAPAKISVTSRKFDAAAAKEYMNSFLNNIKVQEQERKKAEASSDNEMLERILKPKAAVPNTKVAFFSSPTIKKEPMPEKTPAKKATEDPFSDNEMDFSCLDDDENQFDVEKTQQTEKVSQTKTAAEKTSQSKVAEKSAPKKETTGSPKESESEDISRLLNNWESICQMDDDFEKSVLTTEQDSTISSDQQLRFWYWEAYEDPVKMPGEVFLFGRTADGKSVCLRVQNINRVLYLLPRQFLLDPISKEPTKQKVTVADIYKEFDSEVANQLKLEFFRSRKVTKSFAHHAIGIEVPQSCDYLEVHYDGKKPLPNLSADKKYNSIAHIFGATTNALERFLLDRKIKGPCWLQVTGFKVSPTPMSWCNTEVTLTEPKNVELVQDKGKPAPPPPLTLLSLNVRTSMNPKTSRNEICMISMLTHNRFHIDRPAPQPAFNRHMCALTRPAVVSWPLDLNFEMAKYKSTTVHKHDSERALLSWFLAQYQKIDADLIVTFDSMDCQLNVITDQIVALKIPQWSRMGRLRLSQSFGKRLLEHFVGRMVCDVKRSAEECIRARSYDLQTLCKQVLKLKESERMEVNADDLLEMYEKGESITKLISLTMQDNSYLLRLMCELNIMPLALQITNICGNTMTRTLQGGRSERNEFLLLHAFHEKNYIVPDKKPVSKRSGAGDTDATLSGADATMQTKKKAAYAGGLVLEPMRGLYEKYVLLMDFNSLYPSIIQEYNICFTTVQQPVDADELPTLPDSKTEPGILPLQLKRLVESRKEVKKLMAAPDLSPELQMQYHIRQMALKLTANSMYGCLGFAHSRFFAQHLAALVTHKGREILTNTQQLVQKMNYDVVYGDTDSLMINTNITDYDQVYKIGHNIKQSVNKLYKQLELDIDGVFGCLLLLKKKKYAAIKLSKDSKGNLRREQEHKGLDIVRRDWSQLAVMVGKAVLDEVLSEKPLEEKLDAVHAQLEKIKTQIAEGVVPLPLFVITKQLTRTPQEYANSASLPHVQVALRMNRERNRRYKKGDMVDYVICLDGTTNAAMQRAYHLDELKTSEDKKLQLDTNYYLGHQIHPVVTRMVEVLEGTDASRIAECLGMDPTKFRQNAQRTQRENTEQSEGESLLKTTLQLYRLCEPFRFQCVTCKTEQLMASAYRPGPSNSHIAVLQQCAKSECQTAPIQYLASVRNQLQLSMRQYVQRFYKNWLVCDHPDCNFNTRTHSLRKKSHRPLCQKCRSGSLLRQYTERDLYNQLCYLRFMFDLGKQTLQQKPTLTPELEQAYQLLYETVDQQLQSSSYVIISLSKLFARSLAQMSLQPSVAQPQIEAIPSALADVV
T1 sequence (Q9VB62 whole entry partner): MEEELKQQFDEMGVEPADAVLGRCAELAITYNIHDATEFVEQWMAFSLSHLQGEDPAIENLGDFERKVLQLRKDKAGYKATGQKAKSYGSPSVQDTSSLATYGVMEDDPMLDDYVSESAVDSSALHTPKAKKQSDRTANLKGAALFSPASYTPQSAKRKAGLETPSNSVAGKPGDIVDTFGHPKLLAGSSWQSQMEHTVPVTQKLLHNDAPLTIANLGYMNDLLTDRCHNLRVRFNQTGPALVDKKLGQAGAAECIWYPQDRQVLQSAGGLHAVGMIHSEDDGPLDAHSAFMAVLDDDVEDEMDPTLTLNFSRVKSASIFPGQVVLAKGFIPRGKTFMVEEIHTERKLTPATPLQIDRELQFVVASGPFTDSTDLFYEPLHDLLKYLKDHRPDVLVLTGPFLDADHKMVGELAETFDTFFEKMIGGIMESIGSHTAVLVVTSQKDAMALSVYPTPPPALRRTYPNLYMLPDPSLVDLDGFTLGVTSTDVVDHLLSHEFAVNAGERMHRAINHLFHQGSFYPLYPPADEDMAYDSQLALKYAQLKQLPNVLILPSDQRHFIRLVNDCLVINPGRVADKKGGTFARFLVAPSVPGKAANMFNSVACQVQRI
T1 sequence (Q9VPH2 whole entry partner): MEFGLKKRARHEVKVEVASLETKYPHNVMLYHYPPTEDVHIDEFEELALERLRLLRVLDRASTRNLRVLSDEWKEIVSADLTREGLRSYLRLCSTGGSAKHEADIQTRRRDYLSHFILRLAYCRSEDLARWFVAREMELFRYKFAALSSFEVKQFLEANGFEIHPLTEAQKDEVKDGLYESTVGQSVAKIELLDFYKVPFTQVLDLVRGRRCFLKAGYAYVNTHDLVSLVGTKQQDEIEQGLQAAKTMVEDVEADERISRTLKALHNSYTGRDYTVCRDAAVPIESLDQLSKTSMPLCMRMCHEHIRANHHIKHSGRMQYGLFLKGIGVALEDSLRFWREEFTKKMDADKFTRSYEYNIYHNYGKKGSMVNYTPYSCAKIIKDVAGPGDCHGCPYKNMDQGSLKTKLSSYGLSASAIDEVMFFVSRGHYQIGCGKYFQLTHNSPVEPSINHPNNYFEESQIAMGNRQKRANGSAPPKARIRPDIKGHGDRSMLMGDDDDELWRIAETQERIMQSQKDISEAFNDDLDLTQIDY
T1 sequence (Q24317 whole entry partner): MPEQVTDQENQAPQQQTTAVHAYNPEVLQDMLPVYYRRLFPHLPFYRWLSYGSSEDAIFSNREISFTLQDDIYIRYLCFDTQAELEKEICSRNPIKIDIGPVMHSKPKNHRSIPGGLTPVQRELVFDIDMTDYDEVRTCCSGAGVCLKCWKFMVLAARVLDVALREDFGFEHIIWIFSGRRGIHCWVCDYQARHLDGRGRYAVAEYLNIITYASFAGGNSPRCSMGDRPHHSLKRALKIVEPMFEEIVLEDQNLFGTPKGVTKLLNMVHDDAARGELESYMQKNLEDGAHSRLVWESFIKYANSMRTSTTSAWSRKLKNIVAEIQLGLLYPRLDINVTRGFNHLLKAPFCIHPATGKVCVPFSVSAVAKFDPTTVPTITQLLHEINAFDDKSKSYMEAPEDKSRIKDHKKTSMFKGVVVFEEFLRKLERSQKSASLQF
Excerpt: (§1) Pol α was purified from calf thymus by immuno-affinity column chromatography, as described by Tamai et al.. Recombinant rat pol β was purified from E. coli JMpβ5, as described by Date et al.. The human pol γ catalytic gene was cloned into pFastBac. Histidine-tagged enzyme was expressed using the BAC-TO-BAC HT Baculovirus Expression System according to the supplier’s manual (Life Technologies, MD, USA) and purified using ProBoundresin (Invitrogen Japan, Tokyo, Japan). Human pols δ and ɛ were purified by nuclear fractionation of human peripheral blood cancer cells (Molt-4) using the second subunit of pols δ and ɛ-conjugated affinity column chromatography, respectively. A truncated form of human pol η (residues 1–511) tagged with His6 at its C-terminal was expressed in E. coli cells and purified as described by Kusumoto et al.. A recombinant mouse pol ι tagged with His6 at its C-terminal was expressed and purified by Ni-NTA column chromatography as described elsewhere (Masutani et al., in preparation). […]
(§2) The compounds were dissolved in distilled dimethyl sulfoxide (DMSO) at various concentrations and sonicated for 30 sec. […] Activity without the inhibitor was considered 100%, and the remaining activity at each concentration of the inhibitor was determined relative to this value. […]

[2] = target: mouse inosine 5′-monophosphate (IMP) dehydrogenase (type II) (Mus musculus, UniProt P24547); assay: IMP dehydrogenase assay; assay type: biochemical; settings: 100 μM
Sequence of mouse inosine 5′-monophosphate (IMP) dehydrogenase (type II) (P24547 whole entry): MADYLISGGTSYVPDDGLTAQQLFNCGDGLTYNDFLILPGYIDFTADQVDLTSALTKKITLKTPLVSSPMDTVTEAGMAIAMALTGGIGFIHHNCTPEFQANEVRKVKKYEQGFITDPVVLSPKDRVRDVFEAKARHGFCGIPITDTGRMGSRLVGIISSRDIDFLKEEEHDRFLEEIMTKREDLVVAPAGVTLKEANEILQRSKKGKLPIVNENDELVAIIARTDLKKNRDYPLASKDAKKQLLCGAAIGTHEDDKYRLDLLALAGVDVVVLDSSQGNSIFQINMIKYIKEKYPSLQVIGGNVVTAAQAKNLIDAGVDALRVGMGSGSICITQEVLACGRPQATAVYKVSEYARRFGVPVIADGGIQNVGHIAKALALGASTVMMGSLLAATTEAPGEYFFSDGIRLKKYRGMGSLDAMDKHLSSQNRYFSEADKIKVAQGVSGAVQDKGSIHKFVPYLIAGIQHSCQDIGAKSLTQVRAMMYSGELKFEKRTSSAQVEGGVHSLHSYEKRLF
Protocol: (§3) The activities of calf primase of pol α, human telomerase, T7 RNA polymerase, mouse IMP dehydrogenase, human DNA topoisomerases I and II, T4 polynucleotide kinase and bovine DNase I were measured in standard assays according to the manufacturer’s specifications, as described by Tamiya-Koizumi et al., Oda et al., Nakayama et al., Mizushina et al., Ishimaru et al., Soltis et al. and Lu et al., respectively.

[3] = target: T2, Taq pol (Thermus aquaticus, UniProt P19821); assay: DNA polymerase assay, Taq pol; assay type: biochemical; settings: 100 μM; 74 °C
T2 construct: purchased Takara Bio (Tokyo, Japan)
Excerpt: as §1, §2

[4] = target: T3, Klenow fragment of E. coli pol I (Escherichia coli, UniProt P00582); assay: DNA polymerase assay, Klenow fragment; assay type: biochemical; settings: 100 μM
T3 construct: the Klenow fragment of pol I from E. coli; purchased Worthington Biochemical Corp. (Freehold, NJ, USA)
Excerpt: as §1, §2

[5] = target: T4, rice pol λ (Oryza sativa subsp. japonica, UniProt Q67VC8); assay: DNA polymerase assay, plant pol λ; assay type: biochemical, rice (Oryza sativa L. cv. Nipponbare); settings: 100 μM
T4 construct: His; made in house
T4 sequence (Q67VC8 whole entry): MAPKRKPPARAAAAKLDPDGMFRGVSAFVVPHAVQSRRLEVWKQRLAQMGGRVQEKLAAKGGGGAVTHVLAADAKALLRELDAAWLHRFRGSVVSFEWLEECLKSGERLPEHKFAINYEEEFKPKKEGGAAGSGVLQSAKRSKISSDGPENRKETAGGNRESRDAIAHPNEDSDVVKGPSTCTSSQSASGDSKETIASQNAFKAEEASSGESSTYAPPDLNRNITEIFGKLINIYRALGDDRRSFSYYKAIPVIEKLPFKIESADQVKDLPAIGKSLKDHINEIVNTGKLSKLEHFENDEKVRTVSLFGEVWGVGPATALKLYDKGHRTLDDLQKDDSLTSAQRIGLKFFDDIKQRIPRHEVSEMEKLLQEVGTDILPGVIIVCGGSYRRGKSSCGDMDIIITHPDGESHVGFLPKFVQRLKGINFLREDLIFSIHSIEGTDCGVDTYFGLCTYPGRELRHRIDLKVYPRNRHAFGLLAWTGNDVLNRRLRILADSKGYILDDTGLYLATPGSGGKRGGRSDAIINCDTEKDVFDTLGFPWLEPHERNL
Excerpt: as §1, §2

[6] = target: T5, fruit fly pol ɛ (Drosophila melanogaster, UniProt Q9VCN1); assay: DNA polymerase assay, insect pol ɛ; assay type: biochemical; settings: 100 μM
T5 construct: purified from early embryos of Drosophila melanogaster; from tissue; host or cells: early embryos of Drosophila melanogaster
Excerpt: as §1, §2

[7] = target: T6, mouse pol ι (Mus musculus, UniProt Q6R3M4); assay: DNA polymerase assay, pol ι; assay type: biochemical
T6 construct: His6 (C); made in house
T6 sequence (Q6R3M4 whole entry): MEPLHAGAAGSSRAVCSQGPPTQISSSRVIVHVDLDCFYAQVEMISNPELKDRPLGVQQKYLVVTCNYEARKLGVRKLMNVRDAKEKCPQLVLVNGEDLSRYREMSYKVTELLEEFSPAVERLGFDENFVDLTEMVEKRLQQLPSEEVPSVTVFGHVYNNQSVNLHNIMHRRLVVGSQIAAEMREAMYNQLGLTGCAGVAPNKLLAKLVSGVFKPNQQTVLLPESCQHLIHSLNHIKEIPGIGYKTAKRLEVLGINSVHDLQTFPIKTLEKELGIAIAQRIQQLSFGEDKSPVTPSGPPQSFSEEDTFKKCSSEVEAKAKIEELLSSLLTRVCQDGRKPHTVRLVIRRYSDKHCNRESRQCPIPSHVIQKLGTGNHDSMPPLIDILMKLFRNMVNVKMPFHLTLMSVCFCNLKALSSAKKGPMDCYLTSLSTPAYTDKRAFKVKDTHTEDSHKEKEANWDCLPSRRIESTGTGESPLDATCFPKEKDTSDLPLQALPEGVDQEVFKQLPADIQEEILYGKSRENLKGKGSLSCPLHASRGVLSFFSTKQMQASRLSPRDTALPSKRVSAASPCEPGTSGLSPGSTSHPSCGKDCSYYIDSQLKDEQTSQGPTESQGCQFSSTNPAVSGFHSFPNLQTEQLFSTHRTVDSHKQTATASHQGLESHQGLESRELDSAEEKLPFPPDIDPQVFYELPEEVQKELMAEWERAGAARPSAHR
Excerpt: as §1, §2

[8] = target: T7, human topoisomerase I (Homo sapiens, UniProt P11387); assay: DNA topoisomerase I assay; assay type: biochemical; settings: 100 μM
T7 construct: Purified human placenta DNA topoisomerases I and II were purchased from TopoGen, Inc; purchased TopoGen, Inc. (Columbus, OH, USA); host or cells: human placenta (tissue-purified)
Excerpt: as §1, with “al..” for “al.. A recombinant mouse pol ι tagged with His6 at its C-terminal was expressed and purified by Ni-NTA column chromatography as described elsewhere (Masutani et al., in preparation).”
as §3

[9] = target: T8, human immunodeficiency virus type-1 (HIV-1) reverse transcriptase (Human immunodeficiency virus type 1 group M subtype B, UniProt P03366); assay: HIV-1 reverse transcriptase assay; assay type: biochemical; settings: 100 μM
T8 construct: HIV-1 reverse transcriptase (recombinant); purchased Worthington Biochemical Corp. (Freehold, NJ, USA)
Excerpt: as §1, §2

## C/C=C/c1occ(C(=O)c2c(OC)cc(OC)cc2C(=O)OC)c(=O)c1OC [compound 1, 3-O-methylfunicone]
[1]
  effect on fruit fly pol α activity: hardly influenced
[2]
  effect on mouse IMP dehydrogenase (type II) activity: did not influence
[3]
  effect on Taq pol activity: no effect
[4]
  effect on Klenow fragment of E. coli pol I activity: no effect
[5]
  effect on rice pol λ activity: no effect
[6]
  effect on fruit fly pol ɛ activity: hardly influenced
[7]; 100 μM
  effect on pol ι activity: selectively inhibit
[7]; poly(dA)/oligo(dT)18 and dTTP, 0.05 units enzyme, read-out: 50% inhibition of pol ι (IC50)
  IC50: 34.3 µM
[8]
  effect on human topoisomerase I activity: did not influence
[9]
  effect on HIV-1 reverse transcriptase activity: did not influence
